Where only a bound is given, the exact number is not on record here.

The results in this text go back to patent US9630947B2, “Therapeutic compounds and related methods of use” (OTSUKA PHARMACEUTICAL CO., LTD., priority 2009, dated 2017).

In this assay the target is T1, purified STEP46 enzyme (Homo sapiens, UniProt P54829).
T1 sequence (P54829 1-565): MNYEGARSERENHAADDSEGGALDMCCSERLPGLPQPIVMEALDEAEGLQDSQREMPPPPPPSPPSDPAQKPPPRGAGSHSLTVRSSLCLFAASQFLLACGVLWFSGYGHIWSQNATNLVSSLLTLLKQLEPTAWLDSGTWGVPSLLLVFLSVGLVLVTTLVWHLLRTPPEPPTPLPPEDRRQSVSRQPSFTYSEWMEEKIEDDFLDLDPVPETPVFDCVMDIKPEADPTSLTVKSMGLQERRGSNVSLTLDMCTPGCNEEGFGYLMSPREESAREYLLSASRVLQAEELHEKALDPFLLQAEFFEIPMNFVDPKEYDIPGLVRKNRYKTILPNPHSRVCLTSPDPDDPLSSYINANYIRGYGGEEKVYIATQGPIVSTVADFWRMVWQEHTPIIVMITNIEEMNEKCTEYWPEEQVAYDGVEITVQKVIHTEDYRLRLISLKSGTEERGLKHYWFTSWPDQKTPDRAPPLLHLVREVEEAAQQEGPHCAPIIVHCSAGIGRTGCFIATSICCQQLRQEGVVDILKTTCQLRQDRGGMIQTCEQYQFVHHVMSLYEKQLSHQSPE
In words: STEP46 biochemical assay (DiFMUP fluorescence phosphatase assay). Particulars: DiFMUP 10 μM, read-out: STEP IC50. The procedure, abridged: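 Compounds preincubated 30 min at room temperature with purified STEP46 (1 ng/well) in 50 mM Hepes, 1 mM DTT, 0.02% Brij35, then 10 μM DiFMUP (final) added for 90 min at 27 °C; 2% DMSO, fluorescence at 360/460 nm. IC50 from four-parameter fit of % inhibition; activators reported as negative % inhibition at 25, 50 and 100 uM.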
On to `CNc1nc(-c2cccnc2)nc2ccc(-c3cccc4sccc34)cc12` [Compound 1340], for which the IC50 is 1000 to 10000 nM.
On to `CCOc1ccc2nc(-c3cccnc3)nc(Nc3nc(-c4ccc(F)c(F)c4)cs3)c2c1` [Compound 468], for which the IC50 was < 1000 nM.
Regarding `COc1ccc2nc(-c3ccnnc3)nc(Nc3cccc(C#N)c3)c2c1` [Compound 1187], the half-inhibitory concentration (IC50) was < 1000 nM.
With `CN(C)c1cccc(-c2ccc3nc(-c4cccnc4)nc(Nc4ccc(F)c(Cl)c4)c3c2)c1` [Compound 643], the IC50 was < 1000 nM.
The result for `COc1ccccc1-c1ccc2c(Nc3ccc(F)c(Cl)c3)nc(-c3cccnc3)nc2c1` [Compound 682] reads 1000 to 10000 nM.
In the case of `FC1(F)Oc2ccc(Nc3nc(-c4cccnc4)nc4ccc(-c5cccnc5)cc34)cc2O1` [Compound 312], the half-inhibitory concentration (IC50) is < 1000 nM.
Consider `COc1ccc2c(Nc3ccc(F)c(Cl)c3)nc(-c3ccnnc3)nc2c1` [Compound 1155], for which the half-maximal inhibitory concentration (IC50) lay in the range of 1000 to 10000 nM.
Take `Cc1ccc(-c2ccc3c(Nc4ccc(F)c(Cl)c4)nc(-c4cccnc4)nc3c2)cc1` [Compound 695]: the IC50 was < 1000 nM.
As to `CNc1nc(-c2cccnc2)nc2cc(-c3cc(F)cc(F)c3)c(C)cc12` [Compound 1408], the half-maximal inhibitory concentration (IC50) lay within 1000 to 10000 nM.
On to `CNc1nc(-c2cccnc2)nc2ccc(-c3ccc(C(C)=O)cc3OC)cc12` [Compound 1382], for which the IC50 is < 1000 nM.
Turning to `CNc1nc(-c2cccnc2)nc2cc(-c3cc(F)cc(F)c3)ccc12` [Compound 1374], the IC50 fell in the range of 1000 to 10000 nM.
For `COc1ccc2nc(-c3cccnc3)nc(Nc3nc(C4CCCCC4)cs3)c2c1` [Compound 433], the 50% inhibitory concentration (IC50) fell in the range of 1000 to 10000 nM.
The result for `CNc1nc(-c2cccnc2)nc2c(C)cc(-c3ccc(OC)cc3)cc12` [Compound 1282] reads 1000 to 10000 nM; that for `CN(C)C(=O)COc1ccc2nc(-c3cccnc3)nc(Oc3ccc(Cl)c(Cl)c3)c2c1` [Compound 847], < 1000 nM.
`Fc1ccccc1-c1ccc2c(NCc3ccccn3)nc(-c3cccnc3)nc2c1` [Compound 1425]: the concentration for half-maximal inhibition (IC50) is 1000 to 10000 nM.
Consider `CN(C)c1nc(-c2cccnc2)nc2ccc(-c3ccccc3C#N)cc12` [Compound 1337], for which the IC50 fell in the range of 1000 to 10000 nM.
With `FC(F)Oc1cccc(Nc2nc(-c3cnccn3)nc3cc(Cl)ccc23)c1` [Compound 1145], the IC50 is 1000 to 10000 nM.
Turning to `CNc1nc(-c2cccnc2)nc2c(C)c(-c3cccc(F)c3F)ccc12` [Compound 1451], the concentration for half-maximal inhibition (IC50) was 1000 to 10000 nM.
The result for `N#Cc1ccc(-c2ccc3c(Nc4ccc(F)c(Cl)c4)nc(-c4cccnc4)nc3c2)cc1` [Compound 690] reads 1000 to 10000 nM; that for `COc1ccc2nc(-c3cccnc3)nc(Nc3nc(-c4ccccc4F)cs3)c2c1` [Compound 439], < 1000 nM.
`CNc1nc(-c2cccnc2)nc2c(C)c(-c3ccccc3F)ccc12` [Compound 1446]: the IC50 is 1000 to 10000 nM.
As for `CCOc1ccc2nc(-c3cccnc3)nc(Nc3ccc4c(c3)NC(=O)CC4)c2c1` [Compound 337], the IC50 is < 1000 nM.
On to `COc1cccc(-c2ccc3nc(-c4cccnc4)nc(Oc4ccc(Cl)c(Cl)c4)c3c2)c1` [Compound 391], for which the IC50 lay in the range of 1000 to 10000 nM.
As for `COc1ccc2nc(-c3cccnc3)nc(Nc3nc(-c4ccccc4Br)cs3)c2c1` [Compound 451], the half-maximal inhibitory concentration (IC50) was < 1000 nM.
With `COc1ccc2nc(-c3cccnc3)nc(Nc3ccc4c(C)cc(=O)oc4c3)c2c1` [Compound 316], the half-inhibitory concentration (IC50) was < 1000 nM.
In the case of `COc1ccc2nc(-c3cnccn3)nc(Nc3ccc(F)c(F)c3)c2c1` [Compound 1192], the IC50 is 1000 to 10000 nM.
Regarding `Cc1cccc2c(Nc3ccc(F)c(Cl)c3)nc(-c3cnccn3)nc12` [Compound 1176], the concentration for half-maximal inhibition (IC50) is 1000 to 10000 nM.
With `CNc1nc(-c2cccnc2)nc2cc(C)c(-c3cccc(OC)c3)cc12` [Compound 1419], the IC50 lay in the range of 1000 to 10000 nM.
For `Fc1ccc(-c2ccc3c(Nc4ccc(F)c(Cl)c4)nc(-c4cccnc4)nc3c2)cc1F` [Compound 674], the IC50 was in the range of 1000 to 10000 nM.
Consider `COc1ccc2nc(-c3ccnnc3)nc(Nc3ccc(F)c(F)c3)c2c1` [Compound 1186], for which the concentration for half-maximal inhibition (IC50) is 1000 to 10000 nM.

By IC50 is commonly meant the midpoint of a concentration-inhibition curve.
